Laboratory results published in US12098352B2, “Stem cell-based lung-on-chip models” (EMULATE, INC., priority 2018, dated 2024).

Tests used:
[1] = test system: Alveolus-Chip epithelium/endothelium barrier; test: Barrier function assay (fluorescent dextran / Lucifer Yellow leakage) in Open-Top Alveolus-Chip; format: cell-based, human
Description: We studied interaction between different chip compartments by perturbating the system with biological and chemical stressors such as LPS, and H2O2 which are known to induce a reversible disruption of the cellular monolayer after acute administration both in vivo and in vitro. […] The presence of a strong barrier is indirectly confirmed by the presence of continuous pattern of E-cad and VE-cad in the monolayer of Alveolar epithelial and endothelial cell, respectively.
Given the limited availability of in vitro models that can closely mimic human alveolar epithelium function and/or its disease states, we explored whether a microfluidic Alveolus-Chip lined with the primary alveolar epithelial cells on an artificial lung stroma with embedded primary lung fibroblasts and pulmonary microvascular endothelial cells would model a lung injury state. To test this, we exposed the Alveolus-Chips to an acute damage generated by exposure to H2O2 under continuous infusion through the epithelium top channel, similarly to as it is […] administered in mice.
Air-Liquid interface was replaced by phenol red free MEM (GIBCO: 51200-038) and medium in the bottom fluidical spiraled channel substituted by one containing 1 mg/ml Lucifer Yellow CH, Lithium Salt (ThermoFisher: L453) or 0.1 mg/ml Dextran, Fluorescein, 3000 MW, Anionic, Lysine Fixable (ThermoFisher: D3306). Leakage of the fluorescent probe from the lumen of the spiraled channel to the epithelial compartment was collected from the outlet reservoirs after indicated hours of perfusion. The fluorescence intensity was measured with a 96-well fluorimeter at excitation/emission indicated by the manufacturer.

IL-6, IL-8 and MCP-1 = test: Cytokine secretion in chip medium effluent (ELISA); format: cell-based, human
Description: We studied interaction between different chip compartments by perturbating the system with biological and chemical stressors such as LPS, and H2O2 which are known to induce a reversible disruption of the cellular monolayer after acute administration both in vivo and in vitro. […] To assess changes in the barrier function following the exposure to these insults, we added a fluorescent dye (e.g. […]—Dextran-FITC) to the endothelial compartment, which is under control condition confirmed that the endothelium and epithelium form a barrier to the dies. The presence of a strong barrier is also indirectly confirmed by the presence of continuous pattern of E-cad and VE-cad in the monolayer of Alveolar epithelial and endothelial cell, respectively. […] We also decoupled the effect of single biological component to the inflammatory response by selectively removing them from the system in an integrated matrix. […] In fact, the recorded value of IL-6 and IL-8 is not the algebraic sum of the concentration of the factors released by the single cellular components. […]
The amount of Surfactant B and C was collected from chip epithelial cell surface by PBS washing and measured by Human SFTPB/Surfactant Protein B ELISA Kit (Sandwich ELISA)—LS-F4439 and Human SFTPC/Surfactant Protein C ELISA Kit (Sandwich ELISA)—LS-F12438 (LifeSpanBioScience) following the manufacturer's protocol. The color reaction was measured at 450 nm with a photometer (specification). […] Similarly, the presence of IL-6, IL-8 and MPC in medium samples was detected by Human TLR-induced Cytokines II: Microbial-induced Multi-Analyte ELISArray Kit (MEH-008A) (Qiogen) following the manufacturer's protocol. The color reaction was measured at 450 nm with a photometer (specification). […]

platelets = test: Blood perfusion of LPS pretreated Alveolar-chip vascular channel; format: cell-based, human; conditions: LPS pretreated (inflamed) chip
Experimental: For further validation on the functionality of the endothelial compartment, the vascular compartment comprising an endothelial cell lining, was exposed to blood under flow. In one embodiment, an LPS pretreated microfluidic Alveolar-chip was perfused with blood, i.e. blood was flowed through the spiral channel. In one embodiment, a sample of human blood, e.g. 5 ml of whole blood isolated the same day from a healthy person (e.g. in citrate or heparin anticoagulation compounds) was perfused through the bottom spiraled channel with Ca2+ and Mg2+ to counteract the anticoagulation compounds, at 30 ml/hour. […] Left, schematic diagrams of the upper channels blue and ports blue dots, and spiral lower vascular endothelial channel red and ports red dots. […] Larger pink areas represent aggregation of platelets and adhered platelets are observed at the lower sharp bend.

[2] = test system: epithelium-endothelium co-culture perfused with human whole blood; conditions: LPS treatment of the alveolar lumen of epithelium-endothelium co-culture; cited from earlier work

In the case of Lipopolysaccharide [LPS], the “effect of stressor on barrier function” value ([1]; LPS 10 ng/ml and/or H2O2 10 mM) is reported as “causes barrier breakdown and disruption of intracellular junction”, the “reversibility of barrier breakdown after removal of stressor” value ([1]; additional 2 days in fresh medium) is reported as “barrier breakdown in our chip was reversable” and the “release of IL-6, IL-8 and MCP-1 in medium effluent” value (IL-6, IL-8 and MCP-1; 24 hours of exposure) is reported as “increases of lung specific cytokines”. For the same substance, the “IL-6, IL-8 and MCP-1 secretion, fold increase in relation to untreated controls” value (IL-6, IL-8 and MCP-1; LPS stimulation, co-presence of epithelial cells) was 40-90 fold, the “platelet response on blood perfusion” value (platelets) was “platelet adhesion and aggregation” and the thrombotic events [2] was “triggered thrombotic events”.
